Experimental data taken from patent US20030166542A1, “Systemic immune response induced by mucosal administration of lipid-tailed polypeptides without adjuvant” (INSTITUT PASTEUR, priority 1999, published 2003).
*: point of attachment. Palmitoyl = CCCCCCCCCCCCCCCC(=O)*

How the values were obtained:
[1] = system: P. falciparum sporozoites, liver schizonts, infected RBC; test: Immunofluorescent Ab assay (IFAT) of sera from immunized mice against native parasite; type: in vivo
Procedure: FIG. 2: Mucosal immunization elicits parasite-specific antibody responses. Sera were obtained from C3H/HeJ mice at 2weeks post-immunization by either nasal or sub-lingual route and assayed fro recognition of (a) P. falciparum sporozoites and (B) hepatic schizonts in an IFI assay as described in Material and Methods. The data are representative of three independent experiments.
The reactivity of the sera against native proteins from various stages of the parasite were analyzed by IFAT using either (i) P. faciparum NF54 strain sporozoites (a gift of W. Eling), or (ii) sections from liver biopsies containing day 5 P. falciparum liver schizonts, or (iii) day 6 ½ P. falciparum liver schizonts obtained from a Chimpanzee. IFAT-labeled anti-human IgG, -A, -M (Diagnostic Pasteur France) or anti-mouse (Cappel. Wester Chester. Pa.) diluted {fraction (1/ 200)} were employed as second Abs.

[2] = system: spleen and inguinal lymph node cells; test: Lymphocyte proliferative assay ((3H)TdR) on spleen and inguinal lymph node cells of immunized mice; type: cell-based
Procedure: FIG. 3: Systemic cellular immune responses are electited by presentation of lipid-tailed polypeptides to the nasal and sub-lingual mucosal surfaces. Groups of five C3H/HeJ mice were administrated with LSA3-NRII lipid-tailed (black bars) or non-lipdated polypeptide (hatched bars) either a) intranasally, b) sub-lingually, or c) subcutaneously. Two weeks after two administrations, cell suspensions from individual spleens were assayed for in vitro proliferation to the recall polypeptide. Results are expressed as Δ cpm. The background cpm, in unstimulated cells were 1548 fro intranasal, 2356 for sub-lingual and 1965 for subcutaneous routs, Bars represent the mean Δ cpm±SD in each group. The data were similar and are representative of three separate experiments.

C3H/HeJ mice = test: Isotype analysis of polypeptide-specific serum antibodies (ELISA); type: in vivo
[3] = system: T lymphocytes from ganglia sub-mandibulaires; type: cell-based, BALB/c mice

## Ac-LEESQVNDDIFNSLVKSVQQEQQHNVK(Pam)NH2 (Ac-LEESQVNDDIFNSLVKSVQQEQQHNVK(Palmitoyl)-NH2; SMILES CCCCCCCCCCCCCCCC(=O)NCCCC[C@H](NC(=O)[C@@H](NC(=O)[C@H](CC(N)=O)NC(=O)[C@H](Cc1c[nH]cn1)NC(=O)[C@H](CCC(N)=O)NC(=O)[C@H](CCC(N)=O)NC(=O)[C@H](CCC(=O)O)NC(=O)[C@H](CCC(N)=O)NC(=O)[C@H](CCC(N)=O)NC(=O)[C@@H](NC(=O)[C@H](CO)NC(=O)[C@H](CCCCN)NC(=O)[C@@H](NC(=O)[C@H](CC(C)C)NC(=O)[C@H](CO)NC(=O)[C@H](CC(N)=O)NC(=O)[C@H](Cc1ccccc1)NC(=O)[C@@H](NC(=O)[C@H](CC(=O)O)NC(=O)[C@H](CC(=O)O)NC(=O)[C@H](CC(N)=O)NC(=O)[C@@H](NC(=O)[C@H](CCC(N)=O)NC(=O)[C@H](CO)NC(=O)[C@H](CCC(=O)O)NC(=O)[C@H](CCC(=O)O)NC(=O)[C@H](CC(C)C)NC(C)=O)C(C)C)[C@@H](C)CC)C(C)C)C(C)C)C(C)C)C(N)=O) [LSA3-NRII lipid-tailed polypeptide, palmitoyl lipid-tailed polypeptide derived from P. falciparum LSA-3]
[1]; different steps of intra-erythrocytic maturation
  reactivity of induced Abs with infected RBC's by IFAT: did not react
[1]; sporozoite and liver stages, sera of mucosally immunized BALB/c and C3H/HeJ
  reactivity of induced Abs with intact parasite by IFAT: react with the intact parasite
[2]; Ag specificity
  proliferative responses against irrelevant polypeptide (LSA1-J): lack of responses
[2]; S.L.
  maximal delta cpm, inguinal lymph nodes: 16189 cpm
[2]; S.L. or I.N. application, no mucosal adjuvant, C3H/HeJ
  proliferative responses in spleen cells to recall polypeptide: strong proliferative responses
[2]; after mucosal administration, anti-CD4 / anti-CD8 antibodies
  phenotype of lymphoproliferative responses (antibody blocking): abrogated by antibodies against CD4 but not by anti- CD8 antibodies
[2]; same dose, P<0.05
  proliferative responses, mucosally versus subcutaneously immunized animals: at higher levels compared to subcutaneously immunized animals
C3H/HeJ mice; mucosal administration (I.N., S.L.)
  isotype profile of serum antibody response: preferential IgG2a serum antibody response
C3H/HeJ mice; subcutaneous route
  isotype profile of serum antibody response: dominant IgG1 isotype response

## Concanavaline A [CON A, reference compound]
[3]; positive control
  immune response (CFSE shift of fluorescence): maximum immune response

## Nh2-K(NεPam)GRQYIKANSKFIGITERGRILKEPVHGV-COOH [H-K(PAM)TT-pol 476-484]
[3]
  shift of fluorescence (CFSE): as intense as that provided by positive CON A control
